# Read-outs that look alike come from different tables or passages of the source. Marks after values point to notes of the source that are not given here.
# Tests used:
# A. terreus = assay: MIC testing (CLSI broth dilution); type: cell-based, Aspergillus terreus
# Procedure: MICs were determined using Clinical and Laboratory Standards Institute guidelines ([48], [49]). All yeasts were cultured overnight in 3 mL YPD at 30°C, then washed twice in sterile phosphate-buffered saline (PBS). Twofold serial dilutions of each drug were prepared in RMPI + MOPS, then 1 × 10^3 cells were added per well. For mold species, wells were inoculated with 1.25 × 10^3 conidia per well. Plates were incubated at 37°C for 24 (Candida spp. and S. cerevisiae), 48 (Aspergillus spp., M. circinelloides, S. apiospermum, and L. prolificans), or 72 (C. neoformans and F. oxysporum) hours. S. cerevisiae BY4743 MICs were tested in YPD due to nutritional requirements of this strain. Each assay was performed in technical duplicate in at least two independent experiments performed on different days.
# [1] = test system: A. fumigatus CEA10 hyphae; assay: Propidium iodide viability staining of treated hyphae; type: cell-based, Aspergillus fumigatus
# Procedure: For PI staining of 1-treated hyphae, 0.5 × 10^3conidia/mL in 100 µL RPMI + MOPS were inoculated into chambers of an eight-well chamber slide and incubated at 37°C for 14 hours. 100 µL of media containing a 2× concentration of 1 or an equivalent amount of DMSO was added to each chamber, and slides were incubated for an additional 24 hours. Media were removed from chambers, replaced with PBS + 40 µM propidium iodide (Invitrogen, Cat # P3566), then slides were incubated at room temperature for 20 min in the dark. Images were acquired on a Nikon epifluorescence microscope with a Nikon DS-Fi1 camera and Nikon Elements image acquisition and analysis software. Images were processed equally with linear brightness and contrast adjustments in Photoshop, only to increase ease of viewing. Representative images of two independent experiments are shown with two biological replicates each.
# C. neoformans = C. neoformans time kill assay; type: cell-based, Cryptococcus neoformans
# Procedure: Overnight cultures of H99 were enumerated and diluted 1 × 10^5 CFU/mL in YPD with 4 µg/mL 1, 8 µg/mL 1, or DMSO. Cultures were incubated at 37°C with shaking for 30 hours with sampling at t = 0, 2, 4, 6, 8, 24, and 30 hours, then 10-fold serial dilutions of each sample were prepared and spotted on YPD. Viable colonies were enumerated after 48 hours at 30°C. Data are representative of two independent experiments performed in biological triplicate with technical duplicates.
# [2] = test system: S. cerevisiae heterozygous mutants; assay: Chemical haploinsufficiency screen and spot dilution validation; type: cell-based, Saccharomyces cerevisiae; conditions: YPD 32 µg/mL 1, relative to WT
# Procedure: Chemical genetics screening was performed using the Saccharomyces heterozygous deletion collection (Transomic Technologies, TKY3504). Mutant strains were grown overnight in 200 µL YPD in a 96-well plate then pinned into 25 µL PBS using a 96-floating pin multiblot replicator (V&P Scientific Inc, Cat # 408FP6) and library copier (V&P Scientific Inc, Cat # 381). Cell dilutions were then pinned onto an Omni Tray (Nunc, Cat # 242811) single-well plate containing YPD with DMSO or 32 µg/mL 1 for a total of 384 spots per plate. Each plate contained at least one wild type control. Plates were incubated at 30°C and imaged every 24 hours for 4 days. Hits were called by visual evaluation. To validate hits and score growth phenotypes, serial dilutions of OD = 1.0, 0.1, 0.01, and 0.001 were prepared for each mutant from a 200 µL YPD overnight culture in a 96-well plate. Three microliters of each dilution was spotted on YPD containing DMSO or 32 µg /mL 1 and incubated for 72 hours at 30°C. The growth of each mutant on 1 was scored compared to wild-type controls as no inhibition (++++), modest (+++), or severe (+/++) growth inhibition.
# C. neoformans H99 = assay: ER stress interactions on YPD plates; type: cell-based, Cryptococcus neoformans; conditions: 4 µg/mL 1 on YPD
# Procedure: To determine interactions of 1 with ER stress in Cryptococcus neoformans, an overnight culture of H99 was diluted to 1 × 10^6 CFU/mL, then three 10-fold dilutions were prepared. Three-microliter spots of each cell dilution were plated in triplicate on YPD containing DMSO or 4 µg/mL 1 in combination with DTT, brefeldin A, or tunicamycin. Plates were incubated at 37°C for 72 hours. Images are representative of two independent experiments performed in biological triplicate.
# [3] = Protein binding analysis, plasma; type: in vitro ADME; conditions: mouse, mouse plasma diluted 1:10 with PBS
structure (smiles),measurement,setting,value
OC1CC(c2cc(N3CCC(CCc4ccccc4)CC3)ncn2)C1 (stereo not shown) [compound 1],MIC,"A. terreus; Aspergillus terreus, strain S010, clinical isolate, CLSI conditions",8 µg/mL
same,Minimum effective concentration (MEC),"A. terreus; strain S023, clinical isolate, no clear well, growth reduced by ≥50% at MEC",16^b µg/mL
same,propidium iodide staining of hyphae,[1]; 8 µg/mL for 24 hours after 14 hours germination,did not show increased staining relative to vehicle-treated controls
same,propidium iodide staining of hyphae,[1]; 32 µg/mL for 24 hours after 14 hours germination,stained brightly
same,type of activity against biofilms,[1]; at concentrations 2× the MIC,fungicidal
same,propidium iodide staining of C. neoformans vs vehicle,"C. neoformans; 8 µg/mL, 24 hours post treatment (Fig. S1)",did not observe changes in propidium iodide
same,type of activity (time kill),C. neoformans; 2× (4 µg/mL) or 4× (8 µg/mL) MIC over 30 hours,fungistatic
same,viable CFUs vs vehicle-treated controls,"C. neoformans; 4 or 8 µg/mL, 8, 24 and 30 hours post-treatment",significantly reduced
same,Growth,[2]; mutant YDR361C BCP1,+++
same,Growth,[2]; mutant YDR362C TFC6,+++
same,Growth,[2]; mutant YDR373W FRQ1,+++
same,Growth,[2]; mutant YDR416W SYF1,+++
same,Growth,[2]; mutant YER012W PRE1,+++
same,Growth,[2]; mutant YFR051C RET2,+++
same,Growth,[2]; mutant YGL047W ALG14,++
same,Growth,[2]; mutant YGL116W CDC20,+++
same,Growth,[2]; mutant YGR190C Dubious_HIP1 overlap,+++
same,Growth,[2]; mutant YGR191W HIP1,+++
same,Growth,[2]; mutant YGR216C GPI1,+++
same,Growth,[2]; mutant YHR062C RPP1,+++
same,Growth,[2]; mutant YHR068W DYS1,++
same,Growth,[2]; mutant YHR072W ERG7,+++
same,Growth,[2]; mutant YHR107C CDC12,+++
same,Growth,[2]; mutant YHR122W CIA2,+++
same,Growth,[2]; mutant YHR143W-A RPC10,++
same,Growth,[2]; mutant YIL033C BCY1,+++
same,Growth,[2]; mutant YIL104C SHQ1,+++
same,Growth,[2]; mutant YIL109C SEC24,+++
same,Growth,[2]; mutant YIL144W NDC80,+++
same,Growth,[2]; mutant YIL147C SLN1,+++
same,Growth,[2]; mutant YIL150C MCM10,+++
same,Growth,[2]; mutant YIL171W,++
same,Growth,[2]; mutant YIR012W SQT1,+++
same,Growth,[2]; mutant YKL049C CSE4,+++
same,Growth,[2]; mutant YKL108W SLD2,++
same,Growth,[2]; mutant YKL154W SRP102,++
same,Growth,[2]; mutant YKL180W RPL17A,++
same,Growth,[2]; mutant YKL189W HYM1,++
same,Growth,[2]; mutant YML085C TUB1,+
same,Growth,[2]; mutant YMR185W RTP1,+++
same,Growth,[2]; mutant YMR277W FCP1,+++
same,Growth,[2]; mutant YMR314W PRE5,+++
same,Growth,[2]; mutant YNL287W SEC21,+++
same,Growth,[2]; mutant YPL131W RPL5,+++
same,Growth,[2]; mutant YPL142C (no gene name),+
same,Growth,[2]; mutant YPL143W RPL33A,+
same,Growth,[2]; mutant YPL235W RVB2,+
same,Growth,[2]; mutant YPL237W SUI3,+
same,Growth,[2]; mutant YPR035W GLN1,+++
same,Growth,[2]; mutant YPR136C Dubious_RRP9 overlap,++
same,Growth,[2]; mutant YPR181C SEC23,+
same,Growth,[2]; mutant YPR187W RPO26,+
same,interaction with tunicamycin,C. neoformans H99; 0.125 µg/mL tunicamycin,antagonistic
same,interaction with tunicamycin,C. neoformans H99; 0.25 µg/mL tunicamycin,additive
same,interaction with DTT,"C. neoformans H99; 37°C, 72 hours",synergistic
same,interaction with brefeldin A,"C. neoformans H99; 37°C, 72 hours",synergistic
same,"fraction unbound at 6 h, 5 µM",[3]; read-out: Corrected % Protein binding (converted),0.0285
same,"fraction unbound at 6 h, 5 µM","[3]; uncorrected (plasma diluted 1:10), read-out: % Protein binding (converted)",0.227
